In US11771709B2, “ALK protein degradation agent and anti-tumor application thereof” (ShanghaiTech University, priority 2017, dated 2023):

Assays:
Assay type in all cases: cell-based
[1] = tested on: SR (NPM-ALK) cells; test: Growth inhibition IC50 in ALCL SR cells (CCK8/WST, 72 hours); settings: 72 h, SR cells, WST; Brigatinib-based PROTAD molecules (Table 3)
Experimental: SR (NPM-ALK) and NCI-H2228 (EML4-ALK, V3) cells were purchased from ATCC. […] All Cells were cultured in RPMI1640 medium with 10% FBS and Penicillin-Streptomycin in 37° C. incubator with 5% CO2.
Cells were seeded at specific density in 96 well plates one day before treatment. […] Viable cells were measured via CCK8 reagent and IC50s were calculated via Prism Graphad. Experiments were repeated at least three times.

[2] = target: T1, ALK protein in H3122 (EML4-ALK) cells (Homo sapiens, UniProt Q9UM73); test: Western blot of ALK protein level (degradation, DC50), ALK phosphorylation and downstream signaling in H3122 cells; settings: ALK protein degradation in H3122 cells
T1 construct: EML4 (Echinoderm microtubule-associated protein-like 4, Q9HC35) fusion partner, variant 1; host or cells: NCI-H3122 lung adenocarcinoma cells; the other entry of the earlier key: EML4 (Q9HC35, Echinoderm microtubule-associated protein-like 4)

[3] = target: T2, ALK protein in SR (NPM-ALK) cells (Homo sapiens, UniProt Q9UM73); test: Western blot of ALK protein level (degradation, DC50), ALK phosphorylation and downstream signaling in SR cells; settings: for DC50: ALK protein degradation in SR cells
T2 construct: NPM (nucleophosmin, NPM1, P06748) fusion partner; host or cells: SR (ALCL) cells; the other entry of the earlier key: NPM1 (P06748, Nucleophosmin)
T2 sequence (Q9UM73 with tags, fused parts or gaps): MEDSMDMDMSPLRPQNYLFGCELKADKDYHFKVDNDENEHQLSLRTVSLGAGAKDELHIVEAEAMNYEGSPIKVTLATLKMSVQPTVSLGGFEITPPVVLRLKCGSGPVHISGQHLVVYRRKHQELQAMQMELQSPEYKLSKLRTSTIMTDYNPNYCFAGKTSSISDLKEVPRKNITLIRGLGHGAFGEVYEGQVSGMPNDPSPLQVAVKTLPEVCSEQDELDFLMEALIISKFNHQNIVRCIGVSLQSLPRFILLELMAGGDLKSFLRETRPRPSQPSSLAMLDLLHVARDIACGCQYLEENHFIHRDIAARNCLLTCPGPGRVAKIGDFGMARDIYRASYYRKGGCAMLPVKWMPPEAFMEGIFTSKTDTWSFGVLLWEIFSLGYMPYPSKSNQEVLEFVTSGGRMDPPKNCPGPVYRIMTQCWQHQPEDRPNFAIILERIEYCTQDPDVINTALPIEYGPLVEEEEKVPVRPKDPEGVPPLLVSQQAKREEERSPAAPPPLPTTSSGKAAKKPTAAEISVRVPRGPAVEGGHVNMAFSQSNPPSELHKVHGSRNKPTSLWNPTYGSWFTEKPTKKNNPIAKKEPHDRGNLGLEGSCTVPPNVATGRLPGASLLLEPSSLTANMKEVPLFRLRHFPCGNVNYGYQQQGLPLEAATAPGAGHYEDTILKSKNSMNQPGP

T1 sequence (Q9UM73 with tags, fused parts or gaps): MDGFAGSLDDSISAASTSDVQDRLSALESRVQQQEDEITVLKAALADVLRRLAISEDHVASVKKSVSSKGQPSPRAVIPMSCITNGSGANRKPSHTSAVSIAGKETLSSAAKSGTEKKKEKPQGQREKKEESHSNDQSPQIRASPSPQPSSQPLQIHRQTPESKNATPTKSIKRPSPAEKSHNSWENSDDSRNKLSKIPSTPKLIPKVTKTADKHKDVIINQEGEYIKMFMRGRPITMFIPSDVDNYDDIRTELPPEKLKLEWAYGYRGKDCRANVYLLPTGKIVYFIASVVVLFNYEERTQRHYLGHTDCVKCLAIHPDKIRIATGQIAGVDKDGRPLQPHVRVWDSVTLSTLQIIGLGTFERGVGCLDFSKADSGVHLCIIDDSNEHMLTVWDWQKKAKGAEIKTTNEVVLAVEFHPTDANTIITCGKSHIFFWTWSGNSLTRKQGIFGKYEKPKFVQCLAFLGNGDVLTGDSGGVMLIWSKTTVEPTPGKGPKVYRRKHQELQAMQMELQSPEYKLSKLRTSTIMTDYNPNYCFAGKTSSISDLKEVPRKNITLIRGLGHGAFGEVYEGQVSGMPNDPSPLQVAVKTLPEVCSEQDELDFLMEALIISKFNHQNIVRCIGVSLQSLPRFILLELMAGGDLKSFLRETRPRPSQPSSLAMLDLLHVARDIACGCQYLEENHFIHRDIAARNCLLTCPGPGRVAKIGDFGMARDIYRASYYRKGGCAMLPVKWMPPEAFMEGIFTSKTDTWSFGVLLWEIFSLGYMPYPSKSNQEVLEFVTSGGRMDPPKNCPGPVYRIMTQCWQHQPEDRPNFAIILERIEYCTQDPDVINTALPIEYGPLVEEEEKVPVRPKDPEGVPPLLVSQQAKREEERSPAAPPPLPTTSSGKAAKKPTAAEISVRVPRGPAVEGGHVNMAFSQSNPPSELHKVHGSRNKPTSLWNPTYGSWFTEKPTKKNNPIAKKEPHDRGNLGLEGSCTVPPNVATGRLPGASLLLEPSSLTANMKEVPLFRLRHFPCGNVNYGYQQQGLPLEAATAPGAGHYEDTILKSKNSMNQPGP

Row | Structure (SMILES) | IC50 [1] | DC50 [2] | DC50 [3] | concentration at which ALK proteins were degraded ([3]; SR cells, western blot)
1 | COc1cc(N2CCC(N3CCN(C(=O)CCC(=O)N[C@H](C(=O)N4C[C@H](O)C[C@H]4C(=O)NCc4ccc(-c5scnc5C)cc4)C(C)(C)C)CC3)CC2)ccc1Nc1ncc(Cl)c(Nc2ccccc2P(C)(C)=O)n1 [SIAIS164120, (2S,4R)-1-((S)-2-(4-(4-(1-(4-((5-chloro-4-((2-(dimethylphosphoryl)phenyl)amino)pyrimidin-2-yl)amino)-3-methoxyphenyl)piperidin-4-yl)piperazin-1-yl)-4-oxobutanamido)-3,3-dimethylbutanoyl)-4-hydroxy-N-(4-(4-methylthiazol-5-yl)benzyl)pyrrolidine-2-carboxamide] | 19.2 ± 8.8 nM | 10 to 100 nM | 1 to 10 nM | 
2 | COc1cc(N2CCC(N3CCN(C(=O)CCCC(=O)N[C@H](C(=O)N4C[C@H](O)C[C@H]4C(=O)NCc4ccc(-c5scnc5C)cc4)C(C)(C)C)CC3)CC2)ccc1Nc1ncc(Cl)c(Nc2ccccc2P(C)(C)=O)n1 [SIAIS164121, (2S,4R)-1-((S)-2-(5-(4-(1-(4-((5-chloro-4-((2-(dimethylphosphoryl)phenyl)amino)pyrimidin-2-yl)amino)-3-methoxyphenyl)piperidin-4-yl)piperazin-1-yl)-5-oxopentanamido)-3,3-dimethylbutanoyl)-4-hydroxy-N-(4-(4-methylthiazol-5-yl)benzyl)pyrrolidine-2-carboxamide] | 21.6 ± 12.5 nM | 50 to 100 nM | 1 to 10 nM | 
3 | COc1cc(N2CCC(N3CCN(C(=O)CCCCC(=O)N[C@H](C(=O)N4C[C@H](O)C[C@H]4C(=O)NCc4ccc(-c5scnc5C)cc4)C(C)(C)C)CC3)CC2)ccc1Nc1ncc(Cl)c(Nc2ccccc2P(C)(C)=O)n1 [SIAIS164122, (2S,4R)-1-((S)-2-(6-(4-(1-(4-((5-chloro-4-((2-(dimethylphosphoryl)phenyl)amino)pyrimidin-2-yl)amino)-3-methoxyphenyl)piperidin-4-yl)piperazin-1-yl)-6-oxohexanamido)-3,3-dimethylbutanoyl)-4-hydroxy-N-(4-(4-methylthiazol-5-yl)benzyl)pyrrolidine-2-carboxamide] | 12.1 ± 9.2 nM | 50 to 100 nM | 1 to 50 nM | 
4 | COc1cc(N2CCC(N3CCN(C(=O)CCCCCC(=O)N[C@H](C(=O)N4C[C@H](O)C[C@H]4C(=O)NCc4ccc(-c5scnc5C)cc4)C(C)(C)C)CC3)CC2)ccc1Nc1ncc(Cl)c(Nc2ccccc2P(C)(C)=O)n1 [SIAIS164123, (2S,4R)-1-((S)-2-(7-(4-(1-(4-((5-chloro-4-((2-(dimethylphosphoryl)phenyl)amino)pyrimidin-2-yl)amino)-3-methoxyphenyl)piperidin-4-yl)piperazin-1-yl)-7-oxoheptanamido)-3,3-dimethylbutanoyl)-4-hydroxy-N-(4-(4-methylthiazol-5-yl)benzyl)pyrrolidine-2-carboxamide] | 11.4 ± 8.1 nM | 10 to 50 nM | 1 to 50 nM | 
5 | COc1cc(N2CCC(N3CCN(C(=O)CCCCCCC(=O)N[C@H](C(=O)N4C[C@H](O)C[C@H]4C(=O)NCc4ccc(-c5scnc5C)cc4)C(C)(C)C)CC3)CC2)ccc1Nc1ncc(Cl)c(Nc2ccccc2P(C)(C)=O)n1 [SIAIS164124, (2S,4R)-1-((S)-2-(8-(4-(-(4-((5-chloro-4-((2-(dimethylphosphoryl)phenyl)amino)pyrimidin-2-yl)amino)-3-methoxyphenyl)piperidin-4-yl)piperazin-1-yl)-8-oxooctanamido)-3,3-dimethylbutanoyl)-4-hydroxy-N-(4-(4-methylthiazol-5-yl)benzyl)pyrrolidine-2-carboxamide] | 9.5 ± 8.1 nM | 100 to 500 nM | 1 to 10 nM | 
6 | COc1cc(N2CCC(N3CCN(C(=O)CCCCCCCC(=O)N[C@H](C(=O)N4C[C@H](O)C[C@H]4C(=O)NCc4ccc(-c5scnc5C)cc4)C(C)(C)C)CC3)CC2)ccc1Nc1ncc(Cl)c(Nc2ccccc2P(C)(C)=O)n1 [SIAIS164125, (2S,4R)-1-((S)-2-(9-(4-(1-(4-((5-chloro-4-((2-(dimethylphosphoryl)phenyl)amino)pyrimidin-2-yl)amino)-3-methoxyphenyl)piperidin-4-yl)piperazin-1-yl)-9-oxononanamido)-3,3-dimethylbutanoyl)-4-hydroxy-N-(4-(4-methylthiazol-5-yl)benzyl)pyrrolidine-2-carboxamide] | 9 ± 5.7 nM | 10 to 50 nM | 1 to 10 nM | 
7 | COc1cc(N2CCC(N3CCN(C(=O)CCCCCCCCC(=O)N[C@H](C(=O)N4C[C@H](O)C[C@H]4C(=O)NCc4ccc(-c5scnc5C)cc4)C(C)(C)C)CC3)CC2)ccc1Nc1ncc(Cl)c(Nc2ccccc2P(C)(C)=O)n1 [SIAIS164126, (2S,4R)-1-((S)-2-(10-(4-(1-(4-((5-chloro-4-((2-(dimethylphosphoryl)phenyl)amino)pyrimidin-2-yl)amino)-3-methoxyphenyl)piperidin-4-yl)piperazin-1-yl)-10-oxodecanamido)-3,3-dimethylbutanoyl)-4-hydroxy-N-(4-(4-methylthiazol-5-yl)benzyl)pyrrolidine-2-carboxamide] | 8 ± 6.7 nM | 10 to 50 nM | 1 to 10 nM | 
8 | COc1cc(N2CCC(NC(=O)CCC(=O)N[C@H](C(=O)N3C[C@H](O)C[C@H]3C(=O)NCc3ccc(-c4scnc4C)cc3)C(C)(C)C)CC2)ccc1Nc1ncc(Cl)c(Nc2ccccc2P(C)(C)=O)n1 [SIAIS164143, N1-(1-(4-((5-chloro-4-((2-(dimethylphosphoryl)phenyl)amino)pyrimidin-2-yl)amino)-3-methoxyphenyl)piperidin-4-yl)-N4-((S)-1-((2S,4R)-4-hydroxy-2-((4-(4-methylthiazol-5-yl)benzyl)carbamoyl)pyrrolidin-1-yl)-3,3-dimethyl-1-oxobutan-2-yl) succinamide] | 11.7 ± 4.2 nM | 50 to 100 nM | 1 to 10 nM | 
9 | COc1cc(N2CCC(NC(=O)CCCC(=O)N[C@H](C(=O)N3C[C@H](O)C[C@H]3C(=O)NCc3ccc(-c4scnc4C)cc3)C(C)(C)C)CC2)ccc1Nc1ncc(Cl)c(Nc2ccccc2P(C)(C)=O)n1 [SIAIS164144, N1-(1-(4-((5-chloro-4-((2-(dimethylphosphoryl)phenyl)amino)pyrimidin-2-yl)amino)-3-methoxyphenyl)piperidin-4-yl)-N5-((S)-1-((2S,4R)-4-hydroxy-2-((4-(4-methylthiazol-5-yl)benzyl)carbamoyl)pyrrolidin-1-yl)-3,3-dimethyl-1-oxobutan-2-yl)glutaramide] | 13.6 ± 9.1 nM | 20 to 100 nM | 1 to 10 nM | 
10 | COc1cc(N2CCC(NC(=O)CCCCC(=O)N[C@H](C(=O)N3C[C@H](O)C[C@H]3C(=O)NCc3ccc(-c4scnc4C)cc3)C(C)(C)C)CC2)ccc1Nc1ncc(Cl)c(Nc2ccccc2P(C)(C)=O)n1 [SIAIS164145, N1-(1-(4-((5-chloro-4-((2-(dimethylphosphoryl)phenyl)amino)pyrimidin-2-yl)amino)-3-methoxyphenyl)piperidin-4-yl)-N6-((S)-1-((2S,4R)-4-hydroxy-2-((4-(4-methylthiazol-5-yl)benzyl)carbamoyl)pyrrolidin-1-yl)-3,3-dimethyl-1-oxobutan-2-yl)adipamide] | 10.3 ± 6.3 nM | 50 to 100 nM | 1 to 10 nM | 
11 | COc1cc(N2CCC(NC(=O)CCCCCC(=O)N[C@H](C(=O)N3C[C@H](O)C[C@H]3C(=O)NCc3ccc(-c4scnc4C)cc3)C(C)(C)C)CC2)ccc1Nc1ncc(Cl)c(Nc2ccccc2P(C)(C)=O)n1 [SIAIS164146, N1-(1-(4-((5-chloro-4-((2-(dimethylphosphoryl)phenyl)amino)pyrimidin-2-yl)amino)-3-methoxyphenyl)piperidin-4-yl)-N7-((S)-1-((2S,4R)-4-hydroxy-2-((4-(4-methylthiazol-5-yl)benzyl)carbamoyl)pyrrolidin-1-yl)-3,3-dimethyl-1-oxobutan-2-yl)heptanediamide] | 3.6 ± 2.1 nM | 0.1 to 10 nM | 1 to 10 nM | 
12 | COc1cc(N2CCC(N3CCN(C(=O)CCC(=O)NCCNc4cccc5c4C(=O)N(C4CCC(=O)NC4=O)C5=O)CC3)CC2)ccc1Nc1ncc(Cl)c(Nc2ccccc2P(C)(C)=O)n1 (stereo not shown) [SIAIS164152, 4-(4-(1-(4-((5-chloro-4-((2-(dimethylphosphoryl)phenyl)amino)pyrimidin-2-yl)amino)-3-methoxyphenyl)piperidin-4-yl)piperazin-1-yl)-N-(2-((2-(2,6-dioxopiperidin-3-yl)-1,3-dioxoisoindolin-4-yl)amino)ethyl)-4-oxobutanamide] | 7.9 ± 3.5 nM | 10 to 50 nM | 0.5 to 10 nM | 
13 | COc1cc(N2CCC(N3CCN(C(=O)CCCc4cn(CCCC(=O)N[C@H](C(=O)N5C[C@H](O)C[C@H]5C(=O)NCc5ccc(-c6scnc6C)cc5)C(C)(C)C)nn4)CC3)CC2)ccc1Nc1ncc(Cl)c(Nc2ccccc2P(C)(C)=O)n1 [SIAIS164153, (2S,4R)-1-((S)-2-(4-(4-(4-(4-(1-(4-((5-chloro-4-((2-(dimethylphosphoryl)phenyl)amino)pyrimidin-2-yl)amino)-3-methoxyphenyl)piperidin-4-yl)piperazin-1-yl)-4-oxobutyl)-1H-1,2,3-triazol-1-yl)butanamido)-3,3-dimethylbutanoyl)-4-hydroxy-N-(4-(4-methylthiazol-5-yl)benzyl)pyrrolidine-2-carboxamide] | 55.9 ± 19.9 nM | 1 to 10 nM | 100 to 500 nM | 1 nM
14 | COc1cc(N2CCN(C(=O)CNc3cccc4c3C(=O)N(C3CCC(=O)NC3=O)C4=O)CC2)ccc1Nc1ncc(Cl)c(Nc2ccccc2P(C)(C)=O)n1 (stereo not shown) [SIAIS1197055, 4-((2-(4-(4-((5-chloro-4-((2-(dimethylphosphoryl)phenyl)amino)pyrimidin-2-yl)amino)-3-methoxyphenyl)piperazin-1-yl)-2-oxoethyl)amino)-2-(2,6-dioxopiperidin-3-yl)isoindoline-1,3-dione] | ~1 nM | 1 to 50 nM | 1 to 10 nM | 
